Each structure is given as a SMILES string. pIC50: −log10 of the molar value.

The target of one experiment is T1, TIE2 (Homo sapiens, UniProt Q02763).
T1 construct: amino acids of the intracellular domain 776-1124; made in house; host or cells: baculovirus expression (pFastBacGT)
In words: Tie2 phosphorylation of PLC test (GST-Tie2, FlashPlate). Format: biochemical. The conditions noted are these: GST-Tie2 intracellular domain 776-1124, GST-PLC substrate, 33P-ATP, one hour at 37° C.; read-out: IC 50 TIE2. On the procedure:
The coding sequence of human Tie2 corresponding to the amino acids of the intracellular domain 776-1124 was generated by PCR using the cDNA isolated from a human placenta as a model. This sequence was introduced into a pFastBacGT baculovirus expression vector in the form of a GST fusion protein.
The inhibitory effect of the molecules is determined in a test of phosphorylation of PLC with Tie2 in the presence of GST-Tie2 purified to about 80% homogeneity. The substrate is composed of the SH2-SH3 fragments of PLC expressed in the form of a GST fusion protein.
The kinase activity of Tie2 is measured in a MOPS 20 mM pH 7.2 buffer, containing 10 mM MgCl2, 10 mM MnCl2, 1 mM DTT, 10 mM of glycerophosphate. In a 96-well FlashPlate plate maintained on ice, a reaction mixture is deposited, composed of 70 μL of kinase buffer containing 100 ng of enzyme GST-Tie2 per well. Next, 10 μL of the test molecule diluted in DMSO to a maximum concentration of 10% are added. For a given concentration, each measurement is performed four times. The reaction is initiated by adding 20 μl of solution containing 2 μg of GST-PLC, 2 μm of cold ATP and 1 μCi of ^33P[ATP]. After incubation for one hour at 37° C., the reaction is stopped by adding 1 volume (100 μl) of 200 mM EDTA. After removal of the incubation buffer, the wells are washed three times with 300 μL of PBS. The radioactivity is measured on a MicroBeta 1450 Wallac.
The inhibition of the Tie2 activity is calculated and expressed as a percentage of inhibition relative to the control activity determined in the absence of compound.

The target in a further experiment is T2, KDR (Homo sapiens, UniProt P35968).
T2 construct: The cytoplasmic domain of the human KDR enzyme; GST; made in house; host or cells: SF21 insect cells (baculovirus, pFastBac)
In words: KDR substrate phosphorylation test, scintillation technique. The settings on record: GST-KDR cytoplasmic domain, PLCγ SH2-SH3 substrate, 33P-ATP, 1 hour at 37° C. Format: biochemical. On the procedure:
The inhibitory effect of the compounds is determined in an in vitro test of phosphorylation of substrate with the enzyme KDR via a scintillation technique (96-well plate, NEN).
The cytoplasmic domain of the human KDR enzyme was cloned in the form of a GST fusion in the pFastBac baculovirus expression vector. The protein was expressed in the SF21 cells and purified to about 60% homogeneity.
The KDR kinase activity is measured in 20 mM MOPS, 10 mM MgCl2, 10 mM MnCl2, 1 mM DTT, 2.5 mM EGTA, 10 mM b-glycerophosphate, pH=7.2, in the presence of 10 mM MgCl2, 100 μm Na3VO4, 1 mM NaF. 10 μl of the compound are added to 70 μl of kinase buffer containing 100 ng of KDR enzyme at 4° C. The reaction is initiated by adding 20 μl of solution containing 2 μg of substrate (SH2-SH3 fragment of PLCγ expressed in the form of a GST fusion protein), 2 μCi of γ^33P[ATP] and 2 μm of cold ATP. After incubation for 1 hour at 37° C., the reaction is stopped by adding 1 volume (100 μl) of 200 mM EDTA. The incubation buffer is removed, and the wells are washed three times with 300 μl of PBS. The radioactivity in each well is measured using a Top Count NXT radioactivity counter (Packard).
The background noise is determined by measuring the radioactivity in four different wells containing radioactive ATP and the substrate alone.
A total activity control is measured in four different wells containing all the reagents (γ^33P-[ATP], KDR and substrate PLCγ), but in the absence of compound.
The inhibition of the KDR activity with the compound of the invention is expressed as a percentage of inhibition of the control activity determined in the absence of compound.
Compound SU5614 (Calbiochem) (1 μM) is included in each plate as an inhibition control.

T2 sequence (P35968 786-1356 limits assumed): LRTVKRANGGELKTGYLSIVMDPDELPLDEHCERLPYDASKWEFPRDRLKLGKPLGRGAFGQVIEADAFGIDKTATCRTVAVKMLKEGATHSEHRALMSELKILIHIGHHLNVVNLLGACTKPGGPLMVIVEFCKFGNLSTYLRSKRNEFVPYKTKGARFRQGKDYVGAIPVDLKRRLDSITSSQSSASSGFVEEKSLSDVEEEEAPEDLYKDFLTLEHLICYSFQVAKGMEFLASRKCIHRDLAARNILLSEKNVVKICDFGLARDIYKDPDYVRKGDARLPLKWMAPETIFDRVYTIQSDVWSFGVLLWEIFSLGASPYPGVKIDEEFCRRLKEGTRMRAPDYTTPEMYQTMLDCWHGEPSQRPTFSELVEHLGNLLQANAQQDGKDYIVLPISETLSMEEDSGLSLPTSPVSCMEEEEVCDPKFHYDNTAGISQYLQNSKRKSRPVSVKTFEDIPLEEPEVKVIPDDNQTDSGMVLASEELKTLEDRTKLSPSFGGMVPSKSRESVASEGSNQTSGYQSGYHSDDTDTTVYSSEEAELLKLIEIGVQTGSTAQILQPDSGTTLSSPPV
T1 sequence (Q02763 776-1124): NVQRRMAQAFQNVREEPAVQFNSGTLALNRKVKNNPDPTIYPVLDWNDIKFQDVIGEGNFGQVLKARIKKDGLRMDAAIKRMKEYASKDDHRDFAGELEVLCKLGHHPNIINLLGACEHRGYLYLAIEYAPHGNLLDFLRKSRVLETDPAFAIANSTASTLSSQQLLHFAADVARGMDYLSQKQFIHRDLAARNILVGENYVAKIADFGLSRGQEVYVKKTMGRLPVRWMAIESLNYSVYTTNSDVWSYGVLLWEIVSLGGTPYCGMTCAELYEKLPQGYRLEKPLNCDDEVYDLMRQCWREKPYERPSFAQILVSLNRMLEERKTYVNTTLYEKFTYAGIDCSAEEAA

`NC(=O)c1[nH]c2cnccc2c1-c1ccc(NC(=O)Nc2cc(C(F)(F)F)ccc2F)cc1` [Example 1, 3-{4-[3-(2-Fluoro-5-trifluoromethylphenyl)ureido]phenyl}-1H-pyrrolo[2,3-c]pyridine-2-carboxamide]: the pIC50 was 8.40 at TIE2 and 7.54 on KDR.

Regarding `COc1ccc(C)cc1NC(=O)Nc1ccc(-c2c(C(N)=O)[nH]c3cnccc23)cc1` [Example 2, 3-{4-[3-(2-Methoxy-5-methylphenyl)ureido]phenyl}-1H-pyrrolo[2,3-c]pyridine-2-carboxamide], the pIC50 on TIE2 was 7.68; against KDR, 6.82.

Consider `Cc1ccc(F)c(NC(=O)Nc2ccc(-c3c(C(N)=O)[nH]c4cnccc34)cc2)c1.O=C(O)C(F)(F)F` [Example 5, 3-{4-[3-(2-Fluoro-5-methylphenyl)ureido]phenyl}-1H-pyrrolo[2,3-c]pyridine-2-carboxamide trifluoroacetate], for which the pIC50 on TIE2 was 7.33; on KDR it was 6.59.

For the molecule `NC(=O)c1[nH]c2ncccc2c1-c1ccc(NC(=O)Nc2cc(C(F)(F)F)ccc2F)cc1` [Example 7, 3-{4-[3-(2-Fluoro-5-trifluoromethylphenyl)ureido]phenyl}-1H-pyrrolo[2,3-b]pyridine-2-carboxamide], the pIC50 at TIE2 was 8.05; on KDR, 7.47.

(Values after patent US7947706B2, “Substituted pyrrolopyridines, compositions containing them, manufacturing process therefor and use thereof” (Sanofi-Aventis Deutschland GmbH, priority 2005, dated 2011).)
